Data: PubChem BioAssay (NCI)
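Five concentrations, 48 hours, 96-well plates. Definition used: TGI = concentration required for complete inhibition of growth.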

Key:
Experiment in all cases: NCI tumour cell line growth inhibition, 48 h
SF-268 CNS = system: SF-268 CNS
NCI-H226 lung = system: NCI-H226 lung
RXF-631 renal = system: RXF-631 renal
DMS 114 small cell lung = system: DMS 114 small cell lung
XF 498 CNS = system: XF 498 CNS
HOP-18 NSCLC = system: HOP-18 NSCLC
DLD-1 colon = system: DLD-1 colon
KM20L2 colon = system: KM20L2 colon
DMS 273 small cell lung = system: DMS 273 small cell lung
M19-MEL melanoma = system: M19-MEL melanoma
LXFL 529 NSCLC = system: LXFL 529 NSCLC
NCI-H522 lung = system: NCI-H522 lung
SNB-78 CNS = system: SNB-78 CNS
M14 melanoma = system: M14 melanoma
A498 renal = system: A498 renal

| SMILES | TGI (SF-268 CNS) [µM] | TGI (NCI-H226 lung) [µM] | TGI (RXF-631 renal) [µM] | TGI (DMS 114 small cell lung) [µM] | TGI (XF 498 CNS) [µM] | TGI (HOP-18 NSCLC) [µM] | TGI (DLD-1 colon) [µM] | TGI (KM20L2 colon) [µM] | TGI (DMS 273 small cell lung) [µM] | TGI (M19-MEL melanoma) [µM] | TGI (LXFL 529 NSCLC) [µM] | TGI (NCI-H522 lung) [µM] | TGI (SNB-78 CNS) [µM] | TGI (M14 melanoma) [µM] | TGI (A498 renal) [µM] |
| --- | --- | --- | --- | --- | --- | --- | --- | --- | --- | --- | --- | --- | --- | --- | --- |
| C/C=C1/C=CC2c3[nH]c4ccccc4c3CCN2C1 (stereo unspecified) | > 400 | > 400 | > 400 | > 400 | > 400 | 279 | > 400 | > 400 | > 400 | > 400 | > 400 | > 400 |  |  |  |
| CC(=O)Nc1ccc2c(c1)C(=O)c1ccccc1-2 | > 100 | > 100 |  | > 100 |  |  | > 100 | > 100 | > 100 | > 100 | > 100 | > 100 | > 100 | > 100 |  |
| CCOC(=O)C1(C)CCC(C(=O)OC)C1=O (stereo unspecified) | > 100 | > 100 |  | 35.1 | > 100 | > 100 | > 100 | > 100 |  | > 100 | > 100 | 31.7 | > 100 | > 100 | > 100 |
| COC(=O)N/N=c1\cc(C(=O)Nc2ccc(C)c(C)c2)oc2cc(O)ccc12 | > 100 | > 100 | > 100 | > 100 | > 100 | > 100 | > 100 | > 100 | > 100 | > 100 | > 100 | > 100 | > 100 | > 100 | > 100 |
| CCOc1ccc(OP2(=O)NC(=O)C=C(C)N2)cc1 (stereo unspecified) | > 100 | > 100 | > 100 | > 100 | > 100 | > 100 | > 100 | > 100 | > 100 | > 100 | > 100 | > 100 | > 100 | > 100 | > 100 |
| CCOC(OCC)(OCC)C(Br)CC (stereo unspecified) | > 100 | > 100 | > 100 | 25.3 | > 100 | > 100 | > 100 | > 100 | 34.5 | > 100 | > 100 | > 100 | > 100 | > 100 | > 100 |
| Cc1cc(C=O)c2c(=O)c3c(O)ccc(/C=C/C(C)C)c3oc2c1 | > 100 | > 100 |  | > 100 |  |  | > 100 | > 100 | > 100 | > 100 | > 100 | 74 |  | > 100 |  |
| CN1S(=O)(=O)N(C)P12(N=P(CP(=NP13(N(C)S(=O)(=O)N1C)N(C)S(=O)(=O)N3C)(c1ccccc1)c1ccccc1)(c1ccccc1)c1ccccc1)N(C)S(=O)(=O)N2C | > 100 | > 100 | > 100 | > 100 | > 100 | > 100 | > 100 | > 100 | > 100 | > 100 | > 100 | > 100 | > 100 | > 100 | > 100 |
| N#CC1=C(S)N(C2OC(CO)C(O)C(O)C2O)C(c2ccccc2)=CC1c1ccco1 (stereo unspecified) | > 100 | > 100 |  |  |  |  |  |  |  |  |  | > 100 |  | > 100 | > 100 |
| N/C(=N\N=C\c1nc2ccccc2o1)c1cnccn1 | > 100 | > 100 |  |  |  |  |  |  |  |  |  | > 100 |  | > 100 | > 100 |
| NS(=O)(=O)c1c(O)c2ccccc2oc1=O | > 100 | > 100 |  |  |  |  |  |  |  |  |  | > 100 |  | > 100 | > 100 |
| O=[N+]([O-])c1ccc2c3c1[C@@H]1O[C@@H]1c1cccc(c1-3)[C@@H]1O[C@H]21 | 10.6 | > 80.9 |  |  |  |  |  |  |  |  |  | 3.33 |  | 9.9 | 8.87 |
| Cc1ccc2c(=O)cc(-c3cc(C)sc3C)[nH]c2n1 | > 73.4 | 7.62 |  |  |  |  |  |  |  |  |  | > 22.2 |  | > 100 | > 100 |
